Experimental data as given in US4950647A, “T cell immunopotentiator” (Nucleic Acid Research Institute, priority 1988, dated 1990).

Key:
[1] = tested on: human lymphocytes (peripheral blood mononuclear cells); test: Phytohemagglutinin (PHA) induced lymphocyte proliferation; type: cell-based
Experimental: (§1) Peripheral blood mononuclear cells were isolated from heparinized peripheral blood of normal healthy donors as described in Sharma, B. and S. Gupta, "Antigen-specific primary cytotoxic T lymphocyte response in acquired immune deficiency syndrome (AIDS) and AIDS related complex", Clin. Exp. Immunol., 62:296, 1985. Briefly, blood was diluted 1:1 with Hanks balanced salt solution (HBSS). Peripheral blood mononuclear cells were separated on a Ficoll-Hypaque gradient. The peripheral blood mononuclear cells recovered from the interface were washed three times with HBSS and resuspended in RPMI-1640 containing 100 U/ml penicillin, 100 μg/ml streptomycin 2mM L-glutamine (GIBCO, Grand Island, N.Y.), and 10% heat-inactivated pooled A serum (Irvine Scientific, Irvine, Calif.), hereafter referred as complete medium (CM).
The ability of the compound 6-amino-(2-deoxy-α-D-erythropentofuranosyl)-imidazo[4,5,-C]pyridin-4-one to modulate lymphocyte response to plant mitogens was determined by the modified procedure of Sharma, B., O. Kohashi, M. R. Mickey, and P. T. Terasaki, "Effect of water soluble adjuvants on in vitro lymphocyte immunization", Cancer Res. 35:666, 1975. Peripheral blood mononuclear cells were cultured for 72-96 hr with phytohemagglutinin (Difco, Detroit, Mich.), Concanavalin A (Calbiochem, Calif.) or Pokeweed mitogen (GIBCO, Grand Island, N.Y.) in the presence and absence of 6-amino-(2-deoxy-α-D-erythro-pentofuranosyl)-imidazo[4,5,-C]pyridin- 4-one. The culture were set up in quadruplicate and pulsed with [^3 H]-thymidine for 16 hr and the [^3 H] thymidine incorporation was determined.
Lymphocytes from different donors where incubated with various concentration of phytohemagglutinin in absence and presence of 6-amino-(2-deoxy-α-D-erythro-pentofuranoxyl)imidazo-[4,5,-C]pyridin- 4-one.
[…] Lymphocyte proliferation was determined by ^3 H-thymidine incorporation.

[2] = tested on: T lymphocytes (peripheral blood mononuclear cells); test: Cyclosporin A induced suppression of lymphocyte response to phytohemagglutinin / T cell mitogens, and its restoration; type: cell-based, human
Experimental: as §1
Cultures were pulsed for 16 hr and [^3 H]-thymidine incorporation was measured.
Peripheral blood mononuclear cells from normal donors were incubated with T cell mitogens in the presence and absence of this compound and then [^3 H-thymidine incorporation was measured.
Peripheral blood mononuclear cells were cultured with phytohemagglutinin in the presence of CsA (10 and 50 ng/0.2 ml) and 6-amino-(2-deoxy-α-D-erythro-pentofuranosyl)-imidazo[4,5,-C]pyridin- 4-one. Lymphocytes proliferation was determined by ^3 H-thymidine incorporation.

[3] = donor 2, PHA 0.25 mg/0.2 ml, compound (0.1)
[4] = donor 2, PHA 1.0 mg/0.2 ml, compound (0.05)
[5] = donor 2, PHA 4.0 mg/0.2 ml, compound (0.038)
[6] = donor 3, PHA 0.25 mg/0.2 ml, compound (0.4)
[7] = donor 3, PHA 1.0 mg/0.2 ml, compound (0.2)
[8] = donor 3, PHA 1.0 mg/0.2 ml, compound (0.4)
[9] = donor 3, PHA 4.0 mg/0.2 ml, compound (0.2)
[10] = donor 3, PHA 4.0 mg/0.2 ml, compound (0.4)
[11] = donor 4, PHA 0.25 mg/0.2 ml, compound (0.4)
[12] = donor 4, PHA 1.0 mg/0.2 ml, compound (0.05)
[13] = donor 4, PHA 1.0 mg/0.2 ml, compound (0.4)
[14] = donor 4, PHA 4.0 mg/0.2 ml, compound (0.4)
[15] = donor 5, PHA 0.5 mg/0.2 ml, compound (0.05)
[16] = donor 5, PHA 1.0 mg/0.2 ml, compound (0.2)
[17] = donor 5, PHA 4.0 mg/0.2 ml, compound (0.2)
[18] = donor 6, PHA 0.5 mg/0.2 ml, compound (0.05)
[19] = donor 7, PHA 0.125 mg/0.2 ml, compound (0.4)
[20] = donor 7, PHA 0.125 mg/0.2 ml, compound (1.0)

Nc1cc2c(ncn2[C@@H]2C[C@H](O)[C@@H](CO)O2)c(O)n1 [Test Compound, 6-amino-1-(2-deoxy-α-D-erythro-pentofuranosyl)imidazo[4,5-C]-pyridin-4-one]
activity in augmenting phytohemagglutinin response compared with interleukin-2 ([1]; Table III): equals that of interleukin-2
potentiation of lymphocyte response to phytohemagglutinin ([1]; all the 5 donors examined): striking potentiation
3H-thymidine incorporation in PHA-stimulated cultures [1, 3]: 56362 ± 8650 Counts per minute
% Potentiation [1, 3]: 294%
3H-thymidine incorporation in PHA-stimulated cultures [1, 4]: 110155 ± 5101 Counts per minute
% Potentiation [1, 4]: 41%
3H-thymidine incorporation in PHA-stimulated cultures [1, 5]: 127102 ± 3001 Counts per minute
% Potentiation [1, 5]: 53%
3H-thymidine incorporation in PHA-stimulated cultures [1, 6]: 34646 ± 6344 Counts per minute
% Potentiation [1, 6]: 1074%
3H-thymidine incorporation in PHA-stimulated cultures [1, 7]: 77757 ± 18381 Counts per minute
% Potentiation [1, 7]: 295%
3H-thymidine incorporation in PHA-stimulated cultures [1, 8]: 61653 ± 12029 Counts per minute
% Potentiation [1, 8]: 213%
3H-thymidine incorporation in PHA-stimulated cultures [1, 9]: 88518 ± 7387 Counts per minute
% Potentiation [1, 9]: 144%
3H-thymidine incorporation in PHA-stimulated cultures [1, 10]: 97950 ± 6240 Counts per minute
% Potentiation [1, 10]: 170%
3H-thymidine incorporation in PHA-stimulated cultures [1, 11]: 28765 ± 4475 Counts per minute
% Potentiation [1, 11]: 1171%
3H-thymidine incorporation in PHA-stimulated cultures [1, 12]: 50131 ± 4674 Counts per minute
% Potentiation [1, 12]: 88%
3H-thymidine incorporation in PHA-stimulated cultures [1, 13]: 91669 ± 7462 Counts per minute
% Potentiation [1, 13]: 244%
3H-thymidine incorporation in PHA-stimulated cultures [1, 14]: 119811 ± 2608 Counts per minute
% Potentiation [1, 14]: 91%
3H-thymidine incorporation in PHA-stimulated cultures [1, 15]: 66109 ± 2263 Counts per minute
% Potentiation [1, 15]: 71%
3H-thymidine incorporation in PHA-stimulated cultures [1, 16]: 79690 ± 3113 Counts per minute
% Potentiation [1, 16]: 79%
3H-thymidine incorporation in PHA-stimulated cultures [1, 17]: 93966 ± 6505 Counts per minute
% Potentiation [1, 17]: 103%
3H-thymidine incorporation in PHA-stimulated cultures [1, 18]: 16156 ± 3600 Counts per minute
% Potentiation [1, 18]: 110%
3H-thymidine incorporation in PHA-stimulated cultures [1, 19]: 25657 ± 2488 Counts per minute
% Potentiation [1, 19]: 353%
3H-thymidine incorporation in PHA-stimulated cultures [1, 20]: 23582 ± 3903 Counts per minute
% Potentiation [1, 20]: 317%
T cell proliferative response after addition of compound ([2]; FIG. 3, PHA + Cyclosporin A + compound): 43,000 CPM
reversal of cyclosporin mediated suppression (partial) ([2]; magnitude of cyclosporin mediated suppression higher, T cell mitogens): over 50%
restoration of lymphocyte proliferation ([2]; suppression about half of the total response, mitogen not stated): completely restored the lymphocyte proliferation
reconstitution of immune response ([2]; suppression low, lower concentration of cyclosporin, T cell mitogens): essentially complete
